Results published in ChEMBL document CHEMBL1909046, “DrugMatrix in vitro pharmacology data”.

Experiments:
Endothelin-1 receptor = target: T1, Endothelin-1 receptor (Homo sapiens, UniProt P25101); type: cell membranes, CHO-K1, Membrane; conditions: cho-k1; also: in other assays of this panel Not Active means under 50% inhibition at 10 µM
T1 sequence (P25101 whole entry): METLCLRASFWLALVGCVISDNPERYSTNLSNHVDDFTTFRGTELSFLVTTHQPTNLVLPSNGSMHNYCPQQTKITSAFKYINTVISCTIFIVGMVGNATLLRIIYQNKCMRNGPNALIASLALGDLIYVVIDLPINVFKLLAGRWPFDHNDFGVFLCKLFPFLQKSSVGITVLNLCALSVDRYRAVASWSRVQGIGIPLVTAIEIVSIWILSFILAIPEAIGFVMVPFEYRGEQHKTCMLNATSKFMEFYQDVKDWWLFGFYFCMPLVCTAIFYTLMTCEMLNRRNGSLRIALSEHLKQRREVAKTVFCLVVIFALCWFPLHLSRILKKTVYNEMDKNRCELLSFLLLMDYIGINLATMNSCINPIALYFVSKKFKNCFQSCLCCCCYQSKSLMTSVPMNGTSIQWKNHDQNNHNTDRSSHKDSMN

[1] = DRUGMATRIX: Calcium Channel Type L, Dihydropyridine radioligand binding (ligand: [3H] Nitrendipine); type: cell membranes, Rattus norvegicus, Wistar, Cerebral cortex, Membrane; conditions: Not Active = under 50% inhibition at 10 µM
[2] = target: T2, Alpha-1A adrenergic receptor (Rattus norvegicus, UniProt P43140); assay: DRUGMATRIX: Alpha-1A adrenergic receptor radioligand binding (ligand: prazosin); type: cell membranes, Wistar, Submaxillary gland, Membrane; conditions: Not Active = under 50% inhibition at 10 µM
T2 sequence (P43140 whole entry): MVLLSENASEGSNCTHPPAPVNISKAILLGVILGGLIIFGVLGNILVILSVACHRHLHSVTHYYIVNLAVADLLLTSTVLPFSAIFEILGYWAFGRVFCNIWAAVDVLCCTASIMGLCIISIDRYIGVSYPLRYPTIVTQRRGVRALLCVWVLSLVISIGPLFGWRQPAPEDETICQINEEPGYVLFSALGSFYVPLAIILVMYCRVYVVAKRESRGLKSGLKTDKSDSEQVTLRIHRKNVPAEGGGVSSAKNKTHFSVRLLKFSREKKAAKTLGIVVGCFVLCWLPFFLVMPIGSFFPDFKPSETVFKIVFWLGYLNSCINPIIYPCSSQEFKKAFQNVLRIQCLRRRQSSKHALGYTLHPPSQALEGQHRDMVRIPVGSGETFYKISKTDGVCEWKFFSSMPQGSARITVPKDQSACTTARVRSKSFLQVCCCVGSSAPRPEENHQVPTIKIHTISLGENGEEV

[3] = target: Platelet-activating factor receptor (Homo sapiens, UniProt P25105); type: tissue-based; also: in other assays of this panel Not Active means under 50% inhibition at 10 µM
Platelet-activating factor receptor, sequence (P25105 whole entry): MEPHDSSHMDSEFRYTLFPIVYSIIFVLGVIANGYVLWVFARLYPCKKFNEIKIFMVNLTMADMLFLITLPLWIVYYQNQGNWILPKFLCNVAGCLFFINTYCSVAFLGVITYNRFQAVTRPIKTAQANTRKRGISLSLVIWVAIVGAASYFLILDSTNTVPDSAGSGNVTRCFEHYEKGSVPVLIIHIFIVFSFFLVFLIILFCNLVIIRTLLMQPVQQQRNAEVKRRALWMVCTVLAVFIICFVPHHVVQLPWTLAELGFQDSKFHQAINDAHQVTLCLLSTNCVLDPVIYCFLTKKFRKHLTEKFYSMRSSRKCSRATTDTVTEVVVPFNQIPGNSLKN

[4] = DRUGMATRIX: Interleukin IL-1 radioligand binding (ligand: [125I] interleukin 1beta); type: cell membranes, Membrane; conditions: nih3t3; Not Active = under 50% inhibition at 10 µM
Adenosine receptor A2a = Adenosine receptor A2a (Homo sapiens, UniProt P29274); assay: DRUGMATRIX: Adenosine A2A radioligand binding (ligand: […]); type: cell membranes, Membrane; conditions: hek293; Not Active = under 50% inhibition at 10 µM
Adenosine receptor A2a, sequence (P29274 whole entry): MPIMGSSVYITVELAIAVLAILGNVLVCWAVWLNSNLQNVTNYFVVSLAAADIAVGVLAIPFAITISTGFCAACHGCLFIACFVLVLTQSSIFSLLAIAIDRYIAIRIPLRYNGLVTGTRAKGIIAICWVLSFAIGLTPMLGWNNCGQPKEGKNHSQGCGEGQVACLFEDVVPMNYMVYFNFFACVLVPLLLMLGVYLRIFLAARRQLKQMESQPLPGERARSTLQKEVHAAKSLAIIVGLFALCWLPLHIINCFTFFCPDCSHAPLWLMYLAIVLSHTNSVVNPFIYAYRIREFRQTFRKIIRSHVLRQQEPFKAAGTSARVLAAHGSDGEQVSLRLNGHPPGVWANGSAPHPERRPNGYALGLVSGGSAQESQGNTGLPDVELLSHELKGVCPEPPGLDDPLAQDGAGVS

[5] = target: 5-hydroxytryptamine receptor 1B (Rattus norvegicus, UniProt P28564); type: cell membranes, Wistar, Cerebral cortex, Membrane; also: in other assays of this panel Not Active means under 50% inhibition at 10 µM
5-hydroxytryptamine receptor 1B, sequence (P28564 whole entry): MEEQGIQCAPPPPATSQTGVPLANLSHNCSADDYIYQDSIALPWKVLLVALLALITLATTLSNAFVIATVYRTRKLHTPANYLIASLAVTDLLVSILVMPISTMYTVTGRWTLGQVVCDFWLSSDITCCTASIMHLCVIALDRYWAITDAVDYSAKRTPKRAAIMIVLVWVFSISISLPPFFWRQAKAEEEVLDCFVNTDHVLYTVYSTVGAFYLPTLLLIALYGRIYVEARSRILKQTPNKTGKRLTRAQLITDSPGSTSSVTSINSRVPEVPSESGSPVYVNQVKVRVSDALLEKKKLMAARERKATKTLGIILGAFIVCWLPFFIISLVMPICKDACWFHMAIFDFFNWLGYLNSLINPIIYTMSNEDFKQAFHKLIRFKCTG

## NC(=O)N1c2ccccc2CCc2ccccc21
Endothelin-1 receptor
  IC50: Not Active
[1]
  IC50: Not Active
  Ki: Not Active
[2]
  IC50: Not Active
[3]
  IC50: Not Active
[4]
  IC50: Not Active
  Ki: Not Active
Adenosine receptor A2a
  IC50: Not Active
[5]
  IC50: Not Active

## Cc1onc(-c2ccccc2Cl)c1C(=O)N[C@@H]1C(=O)N2[C@@H]1SC(C)(C)[C@@H]2C(=O)O [CLOXACILLIN]
Endothelin-1 receptor
  IC50: Not Active
[1]
  IC50: Not Active
  Ki: Not Active
[2]
  IC50: Not Active
[3]
  IC50: Not Active
[4]
  IC50: Not Active
  Ki: Not Active
Adenosine receptor A2a
  IC50: Not Active
[5]
  IC50: Not Active

## COc1ccc(C[C@H]2NC[C@H](O)[C@H]2OC(C)=O)cc1 [ANISOMYCIN]
Endothelin-1 receptor
  IC50: Not Active
  Ki: Not Active
[1]
  IC50: Not Active
  Ki: Not Active
[2]
  IC50: Not Active
  Ki: Not Active
[3]
  IC50: Not Active
  Ki: Not Active
[4]
  IC50: Not Active
  Ki: Not Active
Adenosine receptor A2a
  IC50: Not Active
  Ki: Not Active
[5]
  IC50: Not Active
  Ki: Not Active

## CCn1cc(C(=O)O)c(=O)c2cc(F)c(N3CCNCC3)cc21 [NORFLOXACIN]
Endothelin-1 receptor
  IC50: Not Active
[1]
  IC50: Not Active
  Ki: Not Active
[2]
  IC50: Not Active
[3]
  IC50: Not Active
[4]
  IC50: Not Active
  Ki: Not Active
Adenosine receptor A2a
  IC50: Not Active
[5]
  IC50: Not Active

## CCC1(c2ccc(N)cc2)CCC(=O)NC1=O (centres undefined) [AMINOGLUTETHIMIDE]
Endothelin-1 receptor
  IC50: Not Active
[1]
  IC50: Not Active
  Ki: Not Active
[2]
  IC50: Not Active
[3]
  IC50: Not Active
[4]
  IC50: Not Active
  Ki: Not Active
Adenosine receptor A2a
  IC50: Not Active
[5]
  IC50: Not Active

## Cc1ccc(/N=C/N(C)/C=N/c2ccc(C)cc2C)c(C)c1 [AMITRAZ]
Endothelin-1 receptor
  IC50: Not Active
[1]
  IC50: Not Active
  Ki: Not Active
[2]
  IC50: Not Active
[3]
  IC50: Not Active
[4]
  IC50: Not Active
  Ki: Not Active
Adenosine receptor A2a
  IC50: Not Active
[5]
  IC50: Not Active

## CNNCc1ccc(C(=O)NC(C)C)cc1 [PROCARBAZINE]
Endothelin-1 receptor
  IC50: Not Active
[1]
  IC50: Not Active
  Ki: Not Active
[2]
  IC50: Not Active
[3]
  IC50: Not Active
[4]
  IC50: Not Active
  Ki: Not Active
Adenosine receptor A2a
  IC50: Not Active
[5]
  IC50: Not Active

## CN(C)c1nc(N(C)C)nc(N(C)C)n1 [ALTRETAMINE]
Endothelin-1 receptor
  IC50: Not Active
[1]
  IC50: Not Active
  Ki: Not Active
[2]
  IC50: Not Active
[3]
  IC50: Not Active
[4]
  IC50: Not Active
  Ki: Not Active
Adenosine receptor A2a
  IC50: Not Active
[5]
  IC50: Not Active

## OC(Cn1cncn1)(Cn1cncn1)c1ccc(F)cc1F [FLUCONAZOLE]
Endothelin-1 receptor
  IC50: Not Active
[1]
  IC50: Not Active
  Ki: Not Active
[2]
  IC50: Not Active
[3]
  IC50: Not Active
[4]
  IC50: Not Active
  Ki: Not Active
Adenosine receptor A2a
  IC50: Not Active
[5]
  IC50: Not Active

## C[C@]12CCC(=O)C=C1CC[C@@H]1[C@@H]2CC[C@@]2(C)[C@H]1CC[C@]2(C)O [METHYLTESTOSTERONE]
Endothelin-1 receptor
  IC50: Not Active
[1]
  IC50: Not Active
  Ki: Not Active
[2]
  IC50: Not Active
[3]
  IC50: Not Active
[4]
  IC50: Not Active
  Ki: Not Active
Adenosine receptor A2a
  IC50: Not Active
[5]
  IC50: Not Active

## O=c1oc2ccccc2c(O)c1Cc1c(O)c2ccccc2oc1=O [DICUMAROL]
Endothelin-1 receptor
  IC50: Not Active
[1]
  IC50: Not Active
  Ki: Not Active
[2]
  IC50: Not Active
[3]
  IC50: Not Active
[4]
  IC50: Not Active
  Ki: Not Active
Adenosine receptor A2a
  IC50: Not Active
[5]
  IC50: Not Active

## N=C(N)NCCN1CCCCCCC1 [GUANETHIDINE]
Endothelin-1 receptor
  IC50: Not Active
[1]
  IC50: Not Active
  Ki: Not Active
[2]
  IC50: Not Active
[3]
  IC50: Not Active
[4]
  IC50: Not Active
  Ki: Not Active
Adenosine receptor A2a
  IC50: Not Active
[5]
  IC50: Not Active

## Cc1cc(C2CCCCC2)n(O)c(=O)c1 [CICLOPIROX]
Endothelin-1 receptor
  IC50: Not Active
[1]
  IC50: Not Active
  Ki: Not Active
[2]
  IC50: Not Active
[3]
  IC50: Not Active
[4]
  IC50: Not Active
  Ki: Not Active
Adenosine receptor A2a
  IC50: Not Active
[5]
  IC50: Not Active

## CCOc1ccc(NC(C)=O)cc1 [PHENACETIN]
Endothelin-1 receptor
  IC50: Not Active
[1]
  IC50: Not Active
  Ki: Not Active
[2]
  IC50: Not Active
[3]
  IC50: Not Active
[4]
  IC50: Not Active
  Ki: Not Active
Adenosine receptor A2a
  IC50: Not Active
[5]
  IC50: Not Active

## NC1=NC(=O)C(c2ccccc2)O1 (centres undefined) [PEMOLINE]
Endothelin-1 receptor
  IC50: Not Active
[1]
  IC50: Not Active
  Ki: Not Active
[2]
  IC50: Not Active
[3]
  IC50: Not Active
[4]
  IC50: Not Active
  Ki: Not Active
Adenosine receptor A2a
  IC50: Not Active
[5]
  IC50: Not Active

## C[C@H](CCC(=O)O)[C@H]1CC[C@H]2[C@@H]3[C@H](O)C[C@@H]4C[C@H](O)CC[C@]4(C)[C@H]3C[C@H](O)[C@]12C [CHOLIC ACID]
Endothelin-1 receptor
  IC50: Not Active
[1]
  IC50: Not Active
  Ki: Not Active
[2]
  IC50: Not Active
[3]
  IC50: Not Active
[4]
  IC50: Not Active
  Ki: Not Active
Adenosine receptor A2a
  IC50: Not Active
[5]
  IC50: Not Active

## CC(C)C(Br)C(=O)NC(N)=O (centres undefined) [BROMISOVALUM]
Endothelin-1 receptor
  IC50: Not Active
[1]
  IC50: Not Active
  Ki: Not Active
[2]
  IC50: Not Active
[3]
  IC50: Not Active
[4]
  IC50: Not Active
  Ki: Not Active
Adenosine receptor A2a
  IC50: Not Active
[5]
  IC50: Not Active

## C[C@H]1c2cccc(O)c2C(=O)C2=C(O)[C@]3(O)C(=O)C(C(N)=O)=C(O)[C@@H](N(C)C)[C@@H]3[C@@H](O)[C@@H]21.O [DOXYCYCLINE]
Endothelin-1 receptor
  IC50: Not Active
[1]
  IC50: Not Active
  Ki: Not Active
[2]
  IC50: Not Active
[3]
  IC50: Not Active
[4]
  IC50: Not Active
  Ki: Not Active
Adenosine receptor A2a
  IC50: Not Active
[5]
  IC50: Not Active

## CNCCCN1c2ccccc2CCc2ccccc21 [DESIPRAMINE]
Endothelin-1 receptor
  IC50: Not Active
[1]
  IC50: Not Active
  Ki: Not Active
[2]
  IC50: Not Active
[3]
  IC50: Not Active
[4]
  IC50: Not Active
  Ki: Not Active
Adenosine receptor A2a
  IC50: Not Active
[5]
  IC50: Not Active

## C[C@H](CS)C(=O)N1CCC[C@H]1C(=O)O [CAPTOPRIL]
Endothelin-1 receptor
  IC50: Not Active
[1]
  IC50: Not Active
  Ki: Not Active
[2]
  IC50: Not Active
[3]
  IC50: Not Active
[4]
  IC50: Not Active
  Ki: Not Active
Adenosine receptor A2a
  IC50: Not Active
[5]
  IC50: Not Active

## CC(O)CO (centres undefined) [PROPYLENE GLYCOL]
Endothelin-1 receptor
  IC50: Not Active
[1]
  IC50: Not Active
  Ki: Not Active
[2]
  IC50: Not Active
[3]
  IC50: Not Active
[4]
  IC50: Not Active
  Ki: Not Active
Adenosine receptor A2a
  IC50: Not Active
[5]
  IC50: Not Active

## Cc1c(O)c(=O)ccn1C [DEFERIPRONE]
Endothelin-1 receptor
  IC50: Not Active
[1]
  IC50: Not Active
  Ki: Not Active
[2]
  IC50: Not Active
[3]
  IC50: Not Active
[4]
  IC50: Not Active
  Ki: Not Active
Adenosine receptor A2a
  IC50: Not Active
[5]
  IC50: Not Active

## CC(C)[C@@]1(NC(=O)[C@@H]2C[C@@H]3c4cccc5[nH]cc(c45)C[C@H]3N(C)C2)O[C@@]2(O)[C@@H]3CCCN3C(=O)[C@H](Cc3ccccc3)N2C1=O.CS(=O)(=O)O [DIHYDROERGOCRISTINE MESYLATE]
Endothelin-1 receptor
  IC50: Not Active
[1]
  IC50: Not Active
  Ki: Not Active
[2]; read-out: IC50
  IC50: 1.62 nM
[2]; read-out: Ki
  Ki: 0.656 nM
[3]
  IC50: Not Active
[4]
  IC50: Not Active
  Ki: Not Active
Adenosine receptor A2a
  IC50: Not Active
[5]; read-out: IC50
  IC50: 24 nM
[5]; read-out: Ki
  Ki: 11 nM
